# Legend:
# [1] = test system: wild oat; assay: Test B pre/postemergence wild oat; type: in vivo, Avena fatua
# Outline: (§1)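 Herbicidal effect was estimated by eye on a ten-point control scale after plants spent twelve to sixteen days in a greenhouse following soil or foliar treatment. Foliar sprays targeted plants at one to four leaves; all doses were formulated in a non-phytotoxic solvent with surfactant.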
# [2] = test system: soybean; assay: Test B pre/postemergence soybean; type: in vivo, Glycine max
# Outline: as §1
# [3] = test system: pigweed; assay: Test B pre/postemergence pigweed; type: in vivo, Amaranthus retroflexus
# Outline: as §1
# [4] = test system: morningglory; assay: Test B pre/postemergence morningglory; type: in vivo, Ipomoea hederacea
# Outline: as §1
# [5] = test system: velvetleaf; assay: Test B pre/postemergence velvetleaf; type: in vivo, Abutilon theophrasti
# Outline: as §1
# [6] = test system: crabgrass; assay: Test B pre/postemergence crabgrass; type: in vivo, Digitaria sanguinalis
# Outline: as §1
# [7] = test system: blackgrass; assay: Test B pre/postemergence blackgrass; type: in vivo, Alopecurus myosuroides
# Outline: as §1
# [8] = test system: surinam grass; assay: Test B pre/postemergence surinam grass; type: in vivo, Brachiaria decumbens
# Outline: as §1
# [9] = test system: giant foxtail; assay: Test B pre/postemergence giant foxtail; type: in vivo, Setaria faberii
# Outline: as §1
# [10] = test system: wheat; assay: Test B pre/postemergence wheat; type: in vivo, Triticum aestivum
# Outline: as §1
# [11] = test system: bedstraw; assay: Test B pre/postemergence bedstraw; type: in vivo, Galium aparine
# Outline: as §1
# [12] = test system: duck salad; assay: Test B flood test duck salad; type: in vivo, Heteranthera limosa
# Outline: (§2)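 Plants were grown to the 2-leaf stage before treatment with test chemical, then held in a greenhouse for twelve to sixteen days. Injury was visually rated against untreated controls on a 0–10 scale, where 0 is no effect and 10 is complete control.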
# [13] = test system: purple nutsedge; assay: Test B pre/postemergence purple nutsedge; type: in vivo, Cyperus rotundus
# Outline: as §1
# [14] = test system: rice; assay: Test B flood test rice; type: in vivo, Oryza sativa
# Outline: as §2
# [15] = test system: smallflower flatsedge; assay: Test B flood test smallflower flatsedge; type: in vivo, Cyperus difformis
# Outline: as §2
# [16] = test system: corn; assay: Test B pre/postemergence corn; type: in vivo, Zea mays
# Outline: as §1
# [17] = Preemergence, Rate 62 g/ha, scale of 0 to 10 where 0 is no effect and 10 is complete control
# [18] = Preemergence, Rate 250 g/ha, scale 0 to 10, 0 is no effect, 10 is complete control
# [19] = Preemergence, Rate 500 g/ha, scale 0 (no effect) to 10 (complete control)
# [20] = Preemergence, Rate 500 g/ha, scale of 0 to 10 where 0 is no effect and 10 is complete control
# [21] = Rate 62 g/ha, Postemergence, scale of 0 to 10 where 0 is no effect and 10 is complete control
# [22] = Rate 125 g/ha, Postemergence, scale 0 to 10
# [23] = Preemergence, Rate 125 g/ha, 0 is no effect, 10 is complete control
# [24] = Rate 500 g/ha, Postemergence, scale 0 to 10
# [25] = Rate 62 g/ha, headed Pre-emergence (flood test species), scale 0 to 10 (0 no effect, 10 complete control)
# [26] = Rate 125 g/ha, Pre-emergence, flood test species, scale 0 to 10 where 0 is no effect and 10 is complete control
# [27] = Rate 250 g/ha, Pre-emergence, flood-test species, scale 0 to 10, 0 is no effect, 10 is complete control
# [28] = Rate 500 g/ha, headed Pre-emergence (flood test species), scale 0 to 10 (0 no effect, 10 complete control)
smiles,measurement,setting,value
CCc1cccc(C)c1-n1c(=O)on(C(=O)N(c2ccc(F)cc2)C(C)C)c1=O [Compound 201],Wild oats plant response rating,[1]; [17],0
same,Wild oats plant response rating,[1]; [18],3
same,Wild oats plant response rating,[1]; [19],0
same,"Plant response rating, Wild oats",[1]; [20],5
same,Wild oats plant response rating,[1]; [21],0
same,Wild oats plant response rating,[1]; [22],0
same,"Plant response rating (0 to 10; 0 is no effect, 10 is complete control), Wild oats","[1]; Rate 250 g/ha, Postemergence",0
same,Soybean plant response rating,[2]; [17],0
same,Soybean plant response rating (0 to 10 scale),[2]; [23],0
same,Soybean plant response rating,[2]; [18],0
same,Soybean plant response rating,[2]; [19],0
same,"Plant response rating, Soybean",[2]; [20],0
same,Soybean plant response rating,[2]; [21],1
same,Soybean plant response rating,[2]; [22],1
same,"Plant response rating (0 to 10; 0 is no effect, 10 is complete control), Soybean","[2]; Rate 250 g/ha, Postemergence",2
same,Soybean plant response rating,[2]; [24],3
same,Redroot pigweed plant response rating,[3]; [17],0
same,Redroot pigweed plant response rating (0 to 10 scale),[3]; [23],0
same,Redroot pigweed plant response rating,[3]; [18],0
same,Redroot pigweed plant response rating,[3]; [19],0
same,"Plant response rating, Redroot pigweed",[3]; [20],0
same,Redroot pigweed plant response rating,[3]; [21],0
same,Redroot pigweed plant response rating,[3]; [22],0
same,"Plant response rating (0 to 10; 0 is no effect, 10 is complete control), Redroot pigweed","[3]; Rate 250 g/ha, Postemergence",0
same,Redroot pigweed plant response rating,[3]; [24],3
same,Morningglory plant response rating,[4]; [17],0
same,Morningglory plant response rating (0 to 10 scale),[4]; [23],0
same,Morningglory plant response rating,[4]; [18],0
same,Morningglory plant response rating,[4]; [19],0
same,"Plant response rating, Morningglory",[4]; [20],0
same,Morningglory plant response rating,[4]; [21],1
same,Morningglory plant response rating,[4]; [22],1
same,"Plant response rating (0 to 10; 0 is no effect, 10 is complete control), Morningglory","[4]; Rate 250 g/ha, Postemergence",1
same,Morningglory plant response rating,[4]; [24],3
same,Velvetleaf plant response rating,[5]; [17],0
same,Velvetleaf plant response rating,[5]; [18],0
same,Velvetleaf plant response rating,[5]; [19],0
same,"Plant response rating, Velvetleaf",[5]; [20],0
same,Velvetleaf plant response rating,[5]; [21],0
same,Velvetleaf plant response rating,[5]; [22],0
same,"Plant response rating (0 to 10; 0 is no effect, 10 is complete control), Velvetleaf","[5]; Rate 250 g/ha, Postemergence",1
same,Crabgrass plant response rating,[6]; [17],0
same,Crabgrass plant response rating (0 to 10 scale),[6]; [23],5
same,Crabgrass plant response rating,[6]; [18],9
same,Crabgrass plant response rating,[6]; [19],4
same,"Plant response rating, Crabgrass",[6]; [20],9
same,Crabgrass plant response rating,[6]; [21],0
same,Crabgrass plant response rating,[6]; [22],0
same,"Plant response rating (0 to 10; 0 is no effect, 10 is complete control), Crabgrass","[6]; Rate 250 g/ha, Postemergence",0
same,Crabgrass plant response rating,[6]; [24],0
same,Blackgrass plant response rating,[7]; [17],0
same,Blackgrass plant response rating (0 to 10 scale),[7]; [23],0
same,Blackgrass plant response rating,[7]; [18],4
same,Blackgrass plant response rating,[7]; [19],4
same,"Plant response rating, Blackgrass",[7]; [20],4
same,Blackgrass plant response rating,[7]; [21],0
same,Blackgrass plant response rating,[7]; [22],0
same,"Plant response rating (0 to 10; 0 is no effect, 10 is complete control), Blackgrass","[7]; Rate 250 g/ha, Postemergence",0
same,Blackgrass plant response rating,[7]; [24],4
same,B. signalgrass plant response rating,[8]; [17],0
same,B. signalgrass plant response rating (0 to 10 scale),[8]; [23],0
same,B. signalgrass plant response rating,[8]; [18],0
same,B. signalgrass plant response rating,[8]; [19],0
same,"Plant response rating, B. signalgrass",[8]; [20],4
same,B. signalgrass plant response rating,[8]; [21],0
same,B. signalgrass plant response rating,"[8]; Rate 125 g/ha, Postemergence, scale 0 (no effect) to 10 (complete control)",0
same,"Plant response rating, B. signalgrass","[8]; Rate 250 g/ha, Postemergence, scale 0 to 10, 0 is no effect, 10 is complete control",0
same,B. signalgrass plant response rating,"[8]; Rate 500 g/ha, Postemergence, scale 0 to 10, 0 no effect, 10 complete control",0
same,Giant foxtail plant response rating,[9]; [17],2
same,Giant foxtail plant response rating (0 to 10 scale),[9]; [23],6
same,Giant foxtail plant response rating,[9]; [18],8
same,Giant foxtail plant response rating,[9]; [19],10
same,"Plant response rating, Giant foxtail",[9]; [20],10
same,Giant foxtail plant response rating,[9]; [21],0
same,Giant foxtail plant response rating,[9]; [22],0
same,"Plant response rating (0 to 10; 0 is no effect, 10 is complete control), Giant foxtail","[9]; Rate 250 g/ha, Postemergence",0
same,Giant foxtail plant response rating,[9]; [24],0
same,Wheat plant response rating,[10]; [17],0
same,Wheat plant response rating,[10]; [18],0
same,Wheat plant response rating,[10]; [19],0
same,"Plant response rating, Wheat",[10]; [20],2
same,Wheat plant response rating,[10]; [21],0
same,Wheat plant response rating,[10]; [22],0
same,"Plant response rating (0 to 10; 0 is no effect, 10 is complete control), Wheat","[10]; Rate 250 g/ha, Postemergence",0
same,Bedstraw plant response rating,[11]; [17],0
same,Bedstraw plant response rating (0 to 10 scale),[11]; [23],0
same,Bedstraw plant response rating,[11]; [18],0
same,Bedstraw plant response rating,[11]; [19],0
same,"Plant response rating, Bedstraw",[11]; [20],0
same,Bedstraw plant response rating,[11]; [21],0
same,Bedstraw plant response rating,[11]; [22],0
same,"Plant response rating (0 to 10; 0 is no effect, 10 is complete control), Bedstraw","[11]; Rate 250 g/ha, Postemergence",0
same,Bedstraw plant response rating,[11]; [24],0
same,Ducksalad plant response rating,[12]; [25],0
same,Ducksalad plant response rating,[12]; [26],0
same,Ducksalad plant response rating,[12]; [27],0
same,"Plant response rating, Ducksalad",[12]; [28],2
same,Nutsedge plant response rating,[13]; [17],0
same,Nutsedge plant response rating (0 to 10 scale),[13]; [23],0
same,Nutsedge plant response rating,[13]; [19],0
same,Nutsedge plant response rating,[13]; [21],0
same,Nutsedge plant response rating,[13]; [22],0
same,"Plant response rating (0 to 10; 0 is no effect, 10 is complete control), Nutsedge","[13]; Rate 250 g/ha, Postemergence",0
same,Nutsedge plant response rating,[13]; [24],0
same,Rice plant response rating,[14]; [25],0
same,Rice plant response rating,[14]; [26],0
same,Rice plant response rating,[14]; [27],0
same,"Plant response rating, Rice",[14]; [28],0
same,S. Flatsedge plant response rating,[15]; [25],0
same,S. Flatsedge plant response rating,[15]; [26],0
same,S. Flatsedge plant response rating,[15]; [27],0
same,S. Flatsedge plant response rating,"[15]; Rate 500 g/ha, Pre-emergence, flood test species, scale 0 to 10 (0 no effect, 10 complete control)",7
same,Corn plant response rating,[16]; [17],0
same,Corn plant response rating (0 to 10 scale),[16]; [23],0
same,Corn plant response rating,[16]; [18],0
same,Corn plant response rating,[16]; [19],0
same,"Plant response rating, Corn",[16]; [20],0
same,Corn plant response rating,[16]; [21],0
same,Corn plant response rating,[16]; [22],0
same,"Plant response rating (0 to 10; 0 is no effect, 10 is complete control), Corn","[16]; Rate 250 g/ha, Postemergence",0
same,Corn plant response rating,[16]; [24],0

# Reference: patent publication US6737383B1, “Herbicidal oxadiazolidines” (priority 1999, dated 2004)
